Experimental data: the supplement of paper PMC10307832

How the values were obtained:
Assay in all cases: relative viability (nuclei count vs DMSO), 5 days (fraction); higher = more cells survive
Tanzisertib + Pemetrexed = compound: O[C@H]1CC[C@H](Nc2ncc3nc(Nc4c(F)cc(F)cc4F)n([C@H]4CCOC4)c3n2)CC1 [Tanzisertib] + Nc1nc2[nH]cc(CCc3ccc(C(=O)N[C@@H](CCC(=O)O)C(=O)O)cc3)c2c(=O)[nH]1 [Pemetrexed] (partner 0.2 µM)
In short: (§1)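 Relative viability was taken as the ratio of nuclei in treated wells to nuclei in vehicle wells. Lung cancer cell lines in 1536-well plates received compounds by pin tool one day after seeding, either one drug alone or a fixed anchor-drug dose plus five library-drug doses (not always all listed) in √10 steps. Nuclei were counted on 4× images after 5 days of treatment, and values are medians of duplicate plates.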

Tanzisertib + Dasatinib = compound: O[C@H]1CC[C@H](Nc2ncc3nc(Nc4c(F)cc(F)cc4F)n([C@H]4CCOC4)c3n2)CC1 [Tanzisertib] + Cc1nc(Nc2ncc(C(=O)Nc3c(C)cccc3Cl)s2)cc(N2CCN(CCO)CC2)n1 [Dasatinib] (partner 0.075 µM)
In short: as §1

[1] = compound: C[C@@H](N)c1ccc(C(=O)Nc2ccnc3[nH]ccc23)cc1 + Nc1nc2[nH]cc(CCc3ccc(C(=O)N[C@@H](CCC(=O)O)C(=O)O)cc3)c2c(=O)[nH]1 [Pemetrexed] (partner 0.2 µM)
In short: as §1

[2] = compound: C[C@@H](N)c1ccc(C(=O)Nc2ccnc3[nH]ccc23)cc1 + COc1cc2c(Oc3ccc(NC(=O)C4(C(=O)Nc5ccc(F)cc5)CC4)cc3F)ccnc2cc1OCCCN1CCOCC1 [Foretinib] (partner 0.25 µM)
In short: as §1

Cell Line | relative viability (Tanzisertib + Pemetrexed; first compound 0.08 µM) | relative viability (Tanzisertib + Pemetrexed; first compound 0.253 µM) | relative viability (Tanzisertib + Pemetrexed; first compound 0.8 µM) | relative viability (Tanzisertib + Pemetrexed; first compound 2.53 µM) | relative viability (Tanzisertib + Pemetrexed; first compound 8 µM) | relative viability (Tanzisertib + Dasatinib; first compound 0.08 µM) | relative viability (Tanzisertib + Dasatinib; first compound 0.253 µM) | relative viability (Tanzisertib + Dasatinib; first compound 0.8 µM) | relative viability (Tanzisertib + Dasatinib; first compound 2.53 µM) | relative viability (Tanzisertib + Dasatinib; first compound 8 µM) | relative viability ([1]; first compound 0.1265 µM) | relative viability ([1]; first compound 0.4 µM) | relative viability ([1]; first compound 1.265 µM) | relative viability ([1]; first compound 4 µM) | relative viability ([2]; first compound 0.1265 µM) | relative viability ([2]; first compound 0.4 µM) | relative viability ([2]; first compound 1.265 µM) | relative viability ([2]; first compound 4 µM) | relative viability ([1]; first compound 0.04 µM) | relative viability ([2]; first compound 0.04 µM)
LU99A | 0.167 | 0.191 | 0.172 | 0.159 | 0.19 | 0.585 | 0.629 | 0.556 | 0.557 | 0.496 | 0.189 | 0.191 | 0.23 | 0.188 | 0.875 | 0.714 | 0.681 | 0.621 | – | –
LXF-289 | 0.902 | 0.923 | 1.01 | 0.915 | 1.02 | 0.233 | 0.202 | 0.222 | 0.212 | 0.215 | 0.909 | 0.948 | 0.929 | 0.79 | 0.993 | 0.987 | 1.07 | 0.843 | 0.861 | 1.11
NCI-H23 | 0.785 | 0.761 | 0.682 | 0.681 | 0.584 | 0.918 | 0.814 | 0.726 | 0.694 | 0.51 | 0.744 | 0.848 | – | 0.754 | 1.09 | 0.981 | – | 1.01 | 0.619 | 0.985
NCI-H322M | 0.644 | 0.657 | 0.566 | 0.621 | 0.548 | 0.243 | 0.248 | 0.275 | 0.249 | 0.262 | 0.654 | 0.588 | 0.48 | 0.602 | 1.19 | 1.29 | – | 1.39 | 0.79 | 1.29
NCI-H358 | 0.165 | 0.176 | 0.171 | 0.163 | 0.179 | 0.185 | 0.159 | 0.164 | 0.151 | 0.131 | 0.189 | 0.18 | 0.165 | 0.16 | 0.688 | 0.651 | 0.662 | 0.566 | 0.183 | 0.675
NCI-H522 | 1.04 | 1.07 | 0.915 | 1.07 | 1.05 | 0.937 | 0.974 | 0.845 | 0.855 | 0.884 | 1.09 | 0.956 | 1.05 | 1.01 | – | – | – | – | 0.842 | –
NCI-H727 | – | – | – | – | – | 0.489 | 0.286 | 0.403 | 0.349 | 0.271 | – | – | – | – | 1.07 | 1.36 | 1.26 | 1.24 | – | 1.07
NCI-H1299 | – | – | – | – | – | – | – | – | – | – | – | – | – | – | 1.07 | 0.985 | 0.951 | 0.886 | – | 1.09
NCI-H1623 | – | – | – | – | – | 0.59 | 0.572 | 0.608 | 0.455 | 0.514 | – | – | – | – | 0.859 | 0.992 | 0.655 | 1.07 | – | 0.969
NCI-H1648 | 0.689 | 0.698 | 0.775 | 0.754 | 0.735 | – | – | – | – | – | 0.933 | 1.03 | 1.12 | 1.28 | – | – | – | – | 1.12 | –
NCI-H1703 | – | – | – | – | – | – | – | – | – | – | – | – | – | – | 0.274 | 0.333 | – | 0.324 | – | 0.409
NCI-H1792 | 1.2 | 0.694 | 0.876 | 0.763 | 0.625 | 0.819 | 0.685 | 0.78 | 0.724 | 0.552 | 0.731 | 0.875 | 0.72 | 0.584 | – | – | – | – | 0.817 | –
